Structures can show the parent of a compound that is named as a salt.
Assays:
[1] = tested on: Tyk2 kinase activity on STAT4; assay: pSTAT4 cell assay (MSD, NK92 cells); format: cell-based; settings: compounds 1 hr, stimulated 15 minutes
Procedure, shortened: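 NK92, serum-starved; cpd 1 hr, 10-pt 4-fold from 10 μM; IL2 30 ng/mL 15 min; lyse; MSD with anti-STAT4 Abs; IC50 by 4-PL fit.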

[2] = molecular target: T1, JH2 domain of human Tyk2 (Homo sapiens, UniProt P29597); assay: JH2 biochemical assay (TR-FRET probe displacement); format: binding; settings: JH2 biochemical assay
T1 construct: 10×His-tagged TYK2 JH2 domain (amino acid 575-876)
Procedure, shortened: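 10×His-tagged human TYK2 JH2 (aa 575-876, 2 nM) incubated 60 min with 2 nM fluorescent probe, 0.1 nM Tb anti-His antibody and compound (10-point 3-fold series from […] top). TR-FRET 520/495 nm ratio, falling with probe displacement, normalized and fitted to a 4-parameter logistic for IC50.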

T1 sequence (P29597 575-876): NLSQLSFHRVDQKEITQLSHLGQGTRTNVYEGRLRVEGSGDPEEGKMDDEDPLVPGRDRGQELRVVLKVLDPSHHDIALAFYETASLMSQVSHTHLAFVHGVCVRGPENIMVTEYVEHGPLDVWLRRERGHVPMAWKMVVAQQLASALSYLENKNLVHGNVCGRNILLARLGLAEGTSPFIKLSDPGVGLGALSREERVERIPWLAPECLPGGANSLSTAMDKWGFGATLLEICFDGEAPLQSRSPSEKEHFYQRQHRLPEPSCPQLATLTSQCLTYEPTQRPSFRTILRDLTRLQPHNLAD

CC(=O)Nc1cc2c(cn1)C1(CC1)CN2c1cc(C)nc(N2CCOCC2)n1 [Example 213, N-(1′-(6-methyl-2-morpholinopyrimidin-4-yl)-1′,2′-dihydrospiro[cyclopropane-1,3′-pyrrolo[3,2-c]pyridin]-6′-yl)acetamide]
IC50 [1]: ≥ 1000 nM | IC50 [2]: 10 to 100 nM

CC(=O)Nc1cc2c(cn1)C1(CC1)CN2c1cc(C)nc(N2CCC(O)C2)n1 (stereo not shown) [Example 214, N-(1′-(2-(3-hydroxypyrrolidin-1-yl)-6-methylpyrimidin-4-yl)-1′,2′-dihydrospiro[cyclopropane-1,3′-pyrrolo[3,2-c]pyridin]-6′-yl)acetamide]
IC50 [1]: ≥ 1000 nM | IC50 [2]: 100 to 1000 nM

CC(=O)Nc1cc2c(cn1)C1(CC1)CN2c1cc(C)nc(N2CC(C#N)C2)n1 [Example 216, N-(1′-(2-(3-cyanoazetidin-1-yl)-6-methylpyrimidin-4-yl)-1′,2′-dihydrospiro[cyclopropane-1,3′-pyrrolo[3,2-c]pyridin]-6′-yl)acetamide]
IC50 [1]: 100 to 1000 nM | IC50 [2]: 10 to 100 nM

CC(=O)Nc1cc2c(cn1)C1(CC1)CN2c1cc(C)nc(N2CC(F)C2)n1 [Example 217, N-(1′-(2-(3-fluoroazetidin-1-yl)-6-methylpyrimidin-4-yl)-1′,2′-dihydrospiro[cyclopropane-1,3′-pyrrolo[3,2-c]pyridin]-6′-yl)acetamide]
IC50 [1]: 100 to 1000 nM | IC50 [2]: ≤ 10 nM

CCC1(C#N)CN(c2nc(C)cc(N3CC4(CC4)c4cnc(NC(C)=O)cc43)n2)C1 [Example 219, N-(1′-(2-(3-cyano-3-ethylazetidin-1-yl)-6-methylpyrimidin-4-yl)-1′,2′-dihydrospiro[cyclopropane-1,3′-pyrrolo[3,2-c]pyridin]-6′-yl)acetamide]
IC50 [1]: 100 to 1000 nM | IC50 [2]: 10 to 100 nM

COCCC1(C#N)CN(c2nc(C)cc(N3CC4(CC4)c4cnc(NC(C)=O)cc43)n2)C1 [Example 220, N-(1′-(2-(3-cyano-3-(2-methoxyethyl)azetidin-1-yl)-6-methylpyrimidin-4-yl)-1′,2′-dihydrospiro[cyclopropane-1,3′-pyrrolo[3,2-c]pyridin]-6′-yl)acetamide]
IC50 [1]: ≥ 1000 nM | IC50 [2]: 10 to 100 nM

CC(=O)Nc1cc2c(cn1)C1(CC1)CN2c1cc(C)nc(N2CC(C)(C#N)C2)n1 [Example 221, N-(1′-(2-(3-cyano-3-methylazetidin-1-yl)-6-methylpyrimidin-4-yl)-1′,2′-dihydrospiro[cyclopropane-1,3′-pyrrolo[3,2-c]pyridin]-6′-yl)acetamide]
IC50 [1]: 100 to 1000 nM | IC50 [2]: ≤ 10 nM

CC(=O)Nc1cc2c(cn1)C1(CC1)CN2c1cc(C)nc(N2CC(C(F)F)C2)n1 [Example 222, N-(1′-(2-(3-(difluoromethyl)azetidin-1-yl)-6-methylpyrimidin-4-yl)-1′,2′-dihydrospiro[cyclopropane-1,3′-pyrrolo[3,2-c]pyridin]-6′-yl)acetamide]
IC50 [1]: ≥ 1000 nM | IC50 [2]: 10 to 100 nM

CC(=O)Nc1cc2c(cn1)C1(CC1)CN2c1cc(C)nc(N2CC(C#N)(C(F)F)C2)n1 [Example 223, N-(1′-(2-(3-cyano-3-(difluoromethyl)azetidin-1-yl)-6-methylpyrimidin-4-yl)-1′,2′-dihydrospiro[cyclopropane-1,3′-pyrrolo[3,2-c]pyridin]-6′-yl)acetamide trifluoroacetate]
IC50 [1]: ≥ 1000 nM | IC50 [2]: 10 to 100 nM

CC(=O)Nc1cc2c(cn1)C1(CC1)CN2c1cc(C)nc(N2CC(S(C)(=O)=O)C2)n1 [Example 224, N-(1′-(6-methyl-2-(3-(methylsulfonyl)azetidin-1-yl)pyrimidin-4-yl)-1′,2′-dihydrospiro[cyclopropane-1,3′-pyrrolo[3,2-c]pyridin]-6′-yl)acetamide]
IC50 [1]: ≥ 1000 nM | IC50 [2]: 100 to 1000 nM

CCS(=O)(=O)C1CN(c2nc(C)cc(N3CC4(CC4)c4cnc(NC(C)=O)cc43)n2)C1 [Example 225, N-(1′-(2-(3-(ethylsulfonyl)azetidin-1-yl)-6-methylpyrimidin-4-yl)-1′,2′-dihydrospiro[cyclopropane-1,3′-pyrrolo[3,2-c]pyridin]-6′-yl)acetamide]
IC50 [1]: ≥ 1000 nM | IC50 [2]: 100 to 1000 nM

CC(=O)Nc1cc2c(cn1)C1(CC1)CN2c1cc(C)nc(N2CC(C)(O)C2)n1 [Example 226, N-(1′-(2-(3-hydroxy-3-methylazetidin-1-yl)-6-methylpyrimidin-4-yl)-1′,2′-dihydrospiro[cyclopropane-1,3′-pyrrolo[3,2-c]pyridin]-6′-yl)acetamide]
IC50 [1]: ≥ 1000 nM | IC50 [2]: 10 to 100 nM

CC(=O)Nc1cc2c(cn1)C1(CC1)CN2c1cc(C)nc(N2CCN(C)CC2)n1 [Example 227, N-(1′-(6-methyl-2-(4-methylpiperazin-1-yl)pyrimidin-4-yl)-1′,2′-dihydrospiro[cyclopropane-1,3′-pyrrolo[3,2-c]pyridin]-6′-yl)acetamide]
IC50 [1]: ≥ 1000 nM | IC50 [2]: 100 to 1000 nM

CC(=O)Nc1cc2c(cn1)C1(CC1)CN2c1cc(C)nc(N2CCC3(CC2)COC3)n1 [Example 228, N-(1′-(6-methyl-2-(2-oxa-7-azaspiro[3.5]nonan-7-yl)pyrimidin-4-yl)-1′,2′-dihydrospiro[cyclopropane-1,3′-pyrrolo[3,2-c]pyridin]-6′-yl)acetamide trifluoroacetate]
IC50 [1]: ≥ 1000 nM | IC50 [2]: 100 to 1000 nM

CC(=O)Nc1cc2c(cn1)C1(CC1)CN2c1cc(C)nc(N2CCC(F)(F)C2)n1 [Example 229, N-(1′-(2-(3,3-difluoropyrrolidin-1-yl)-6-methylpyrimidin-4-yl)-1′,2′-dihydrospiro[cyclopropane-1,3′-pyrrolo[3,2-c]pyridin]-6′-yl)acetamide]
IC50 [1]: 100 to 1000 nM | IC50 [2]: ≤ 10 nM

COC1(C(=O)C2CC2)CCN(c2nc(C)cc(N3CC4(CC4)c4cnc(NC(C)=O)cc43)n2)CC1 [Example 231, N-(1′-(2-(4-(cyclopropanecarbonyl)-4-methoxypiperidin-1-yl)-6-methylpyrimidin-4-yl)-1′,2′-dihydrospiro[cyclopropane-1,3′-pyrrolo[3,2-c]pyridin]-6′-yl)acetamide trifluoroacetate]
IC50 [1]: ≥ 1000 nM | IC50 [2]: 100 to 1000 nM

CC(=O)Nc1cc2c(cn1)C1(CC1)CN2c1cc(C)nc(N2CCC(O)CC2)n1 [Example 232, N-(1′-(2-(4-hydroxypiperidin-1-yl)-6-methylpyrimidin-4-yl)-1′,2′-dihydrospiro[cyclopropane-1,3′-pyrrolo[3,2-c]pyridin]-6′-yl)acetamide]
IC50 [1]: ≥ 1000 nM | IC50 [2]: 100 to 1000 nM

COCCN1CCN(c2nc(C)cc(N3CC4(CC4)c4cnc(NC(C)=O)cc43)n2)CC1 [Example 233, N-(1′-(2-(4-(2-methoxyethyl)piperazin-1-yl)-6-methylpyrimidin-4-yl)-1′,2′-dihydrospiro[cyclopropane-1,3′-pyrrolo[3,2-c]pyridin]-6′-yl)acetamide trifluoroacetate]
IC50 [1]: ≥ 1000 nM | IC50 [2]: ≥ 1000 nM

COC1(C)CN(c2nc(C)cc(N3CC4(CC4)c4cnc(NC(C)=O)cc43)n2)C1 [Example 234, N-(1′-(2-(3-methoxy-3-methylazetidin-1-yl)-6-methylpyrimidin-4-yl)-1′,2′-dihydrospiro[cyclopropane-1,3′-pyrrolo[3,2-c]pyridin]-6′-yl)acetamide]
IC50 [1]: 100 to 1000 nM | IC50 [2]: 10 to 100 nM

CC(=O)Nc1cc2c(cn1)C1(CC1)CN2c1cc(C)nc(N2CCC2C)n1 (stereo not shown) [Example 235, N-(1′-(6-methyl-2-(2-methylazetidin-1-yl)pyrimidin-4-yl)-1′,2′-dihydrospiro[cyclopropane-1,3′-pyrrolo[3,2-c]pyridin]-6′-yl)acetamide]
IC50 [1]: 100 to 1000 nM | IC50 [2]: ≤ 10 nM

Reference: patent US20260258032A1, “TYROSINE KINASE 2 INHIBITORS AND USES THEREOF” (BIOGEN MA INC., priority 2022, published 2026)
